According to ChEMBL document CHEMBL5030545, “Discovery of clinical candidate Sivopixant (S-600918): Lead optimization of dioxotriazine derivatives as selective P2X3 receptor antagonists” (Bioorg Med Chem Lett, 2021):
≈ marks a conversion by molar mass, not a printed value.

What was measured:
Rattus norvegicus [1] = assay: Analgesic activity in rat model of partial sciatic nerve ligation-induced neuropathic pain assessed as reversal of allodynia at 3 mg/kg, po measured after 3 hrs relative to control; assay type: functional
Rattus norvegicus [2] = assay: Analgesic activity in rat model of partial sciatic nerve ligation-induced neuropathic pain assessed as reversal of allodynia at 1 mg/kg, po measured after 3 hrs relative to control; assay type: functional
P2X purinoceptor 3 = molecular target: T1, P2X purinoceptor 3 (Rattus norvegicus, UniProt P49654); assay: Antagonist activity at rat P2X3 receptor
T1 sequence (P49654 whole entry): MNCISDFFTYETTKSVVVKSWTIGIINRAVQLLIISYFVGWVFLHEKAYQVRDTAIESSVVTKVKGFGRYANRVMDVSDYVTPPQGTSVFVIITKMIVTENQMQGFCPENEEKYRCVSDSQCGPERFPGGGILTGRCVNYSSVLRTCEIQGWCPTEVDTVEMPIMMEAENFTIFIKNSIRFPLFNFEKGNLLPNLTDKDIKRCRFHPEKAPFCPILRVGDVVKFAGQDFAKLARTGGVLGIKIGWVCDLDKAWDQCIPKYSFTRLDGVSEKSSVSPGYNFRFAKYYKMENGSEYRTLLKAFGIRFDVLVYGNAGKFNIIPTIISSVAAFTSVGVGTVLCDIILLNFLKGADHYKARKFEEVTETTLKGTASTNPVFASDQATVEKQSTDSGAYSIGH

[3] = Plasma concentration in rat at 1 mg/kg, po measured after 3 hrs; assay type: ADME, organism-based
[4] = Clearance in rat at 1 mg/kg, iv; assay type: ADME, organism-based; conditions: in vivo
[5] = Plasma concentration in rat at 10 mg/kg, po measured after 3 hrs; assay type: ADME, organism-based
Rattus norvegicus [6] = assay: Analgesic activity in rat model of partial sciatic nerve ligation-induced neuropathic pain assessed as reversal of allodynia at 10 mg/kg, po measured after 3 hrs relative to control; assay type: functional
[7] = Plasma concentration in rat at 3 mg/kg, po measured after 3 hrs; assay type: ADME, organism-based
[8] = Half life in rat at 1 mg/kg, iv; assay type: ADME, organism-based; conditions: in vivo
P2X purinoceptor 4 = molecular target: T2, P2X purinoceptor 4 (Homo sapiens, UniProt Q99571); assay: Antagonist activity at P2X4 receptor (unknown origin)
T2 sequence (Q99571 whole entry): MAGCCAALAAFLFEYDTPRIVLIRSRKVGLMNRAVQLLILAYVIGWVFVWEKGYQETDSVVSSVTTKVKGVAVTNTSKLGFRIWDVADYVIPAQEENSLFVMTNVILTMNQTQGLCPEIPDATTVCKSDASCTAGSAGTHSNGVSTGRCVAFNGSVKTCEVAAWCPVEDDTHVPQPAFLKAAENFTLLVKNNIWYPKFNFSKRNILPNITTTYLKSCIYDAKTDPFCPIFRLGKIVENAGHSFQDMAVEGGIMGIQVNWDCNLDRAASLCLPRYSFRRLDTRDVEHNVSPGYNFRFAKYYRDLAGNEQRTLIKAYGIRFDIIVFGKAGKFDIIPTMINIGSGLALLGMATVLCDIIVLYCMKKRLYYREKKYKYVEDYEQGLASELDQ

Cytochrome P450 1A2 = molecular target: T3, Cytochrome P450 1A2 (Homo sapiens, UniProt P05177); assay: Inhibition of CYP1A2 (unknown origin); assay type: ADME
T3 sequence (P05177 whole entry): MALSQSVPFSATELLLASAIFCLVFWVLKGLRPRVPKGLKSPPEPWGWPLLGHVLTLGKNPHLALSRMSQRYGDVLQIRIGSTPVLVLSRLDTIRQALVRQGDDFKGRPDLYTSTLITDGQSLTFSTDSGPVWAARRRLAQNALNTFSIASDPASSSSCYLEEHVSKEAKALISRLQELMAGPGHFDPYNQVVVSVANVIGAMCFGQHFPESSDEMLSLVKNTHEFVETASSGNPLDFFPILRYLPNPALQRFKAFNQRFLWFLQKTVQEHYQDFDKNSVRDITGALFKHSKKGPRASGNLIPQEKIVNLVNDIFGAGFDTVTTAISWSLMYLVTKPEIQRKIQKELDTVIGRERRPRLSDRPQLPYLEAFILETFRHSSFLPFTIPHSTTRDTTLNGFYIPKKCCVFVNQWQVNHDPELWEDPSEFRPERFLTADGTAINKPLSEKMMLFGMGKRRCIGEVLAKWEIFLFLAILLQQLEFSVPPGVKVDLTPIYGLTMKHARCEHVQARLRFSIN

[9] = Free plasma concentration in rat plasma at 1 mg/kg administered as cassette dose; assay type: ADME, organism-based; conditions: in vivo
Cytochrome P450 2C19 = Cytochrome P450 2C19 (Homo sapiens, UniProt P33261); assay: Inhibition of CYP2C19 (unknown origin); assay type: ADME
Chain of Cytochrome P450 2C19 (P33261 whole entry): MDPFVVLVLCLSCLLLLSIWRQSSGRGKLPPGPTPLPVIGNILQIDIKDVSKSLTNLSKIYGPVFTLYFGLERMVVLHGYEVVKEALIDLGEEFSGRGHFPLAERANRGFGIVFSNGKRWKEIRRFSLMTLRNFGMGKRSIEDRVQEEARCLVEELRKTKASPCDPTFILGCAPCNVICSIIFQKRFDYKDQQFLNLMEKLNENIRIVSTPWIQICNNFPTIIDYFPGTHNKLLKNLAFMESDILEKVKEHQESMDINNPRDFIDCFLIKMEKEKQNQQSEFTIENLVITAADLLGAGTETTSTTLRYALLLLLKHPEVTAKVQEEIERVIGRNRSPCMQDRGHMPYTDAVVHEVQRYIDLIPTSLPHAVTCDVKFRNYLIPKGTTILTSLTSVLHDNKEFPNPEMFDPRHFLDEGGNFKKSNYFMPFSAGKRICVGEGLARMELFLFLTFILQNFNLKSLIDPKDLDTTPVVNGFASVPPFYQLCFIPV

[10] = Oral bioavailability in rat at 1 mg/kg administered as cassette dose; assay type: ADME, organism-based; conditions: in vivo
[11] = Solubility of the compound in pH 1.2 JP1 fluid; assay type: physicochemical
Cytochrome P450 2D6 = Cytochrome P450 2D6 (Homo sapiens, UniProt P10635); assay: Inhibition of CYP2D6 (unknown origin); assay type: functional
Chain of Cytochrome P450 2D6 (P10635 whole entry): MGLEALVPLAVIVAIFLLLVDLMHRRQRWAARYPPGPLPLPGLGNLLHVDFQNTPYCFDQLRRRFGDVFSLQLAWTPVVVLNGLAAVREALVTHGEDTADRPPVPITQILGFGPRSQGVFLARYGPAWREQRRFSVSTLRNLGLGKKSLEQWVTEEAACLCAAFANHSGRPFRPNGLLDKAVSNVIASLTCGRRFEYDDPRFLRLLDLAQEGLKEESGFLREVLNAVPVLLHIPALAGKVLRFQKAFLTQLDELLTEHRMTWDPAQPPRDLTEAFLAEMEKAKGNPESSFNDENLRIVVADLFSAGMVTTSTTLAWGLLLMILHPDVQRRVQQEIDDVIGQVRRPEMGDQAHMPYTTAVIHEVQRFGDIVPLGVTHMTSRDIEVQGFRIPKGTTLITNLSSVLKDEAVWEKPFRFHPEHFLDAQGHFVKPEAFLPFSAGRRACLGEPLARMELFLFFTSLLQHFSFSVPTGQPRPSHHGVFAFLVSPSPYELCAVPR

[12] = Cmax in rat at 3 mg/kg, po; assay type: ADME, organism-based; set-up: route oral, dose 3 mg/kg; conditions: in vivo
[13] = Protein binding in rat plasma assessed as unbound fraction at 1 mg/kg administered as cassette dose; assay type: ADME, organism-based
Cytochrome P450 3A4 = Cytochrome P450 3A4 (Homo sapiens, UniProt P08684); assay: Inhibition of CYP3A4 (unknown origin); assay type: ADME
Chain of Cytochrome P450 3A4 (P08684 whole entry): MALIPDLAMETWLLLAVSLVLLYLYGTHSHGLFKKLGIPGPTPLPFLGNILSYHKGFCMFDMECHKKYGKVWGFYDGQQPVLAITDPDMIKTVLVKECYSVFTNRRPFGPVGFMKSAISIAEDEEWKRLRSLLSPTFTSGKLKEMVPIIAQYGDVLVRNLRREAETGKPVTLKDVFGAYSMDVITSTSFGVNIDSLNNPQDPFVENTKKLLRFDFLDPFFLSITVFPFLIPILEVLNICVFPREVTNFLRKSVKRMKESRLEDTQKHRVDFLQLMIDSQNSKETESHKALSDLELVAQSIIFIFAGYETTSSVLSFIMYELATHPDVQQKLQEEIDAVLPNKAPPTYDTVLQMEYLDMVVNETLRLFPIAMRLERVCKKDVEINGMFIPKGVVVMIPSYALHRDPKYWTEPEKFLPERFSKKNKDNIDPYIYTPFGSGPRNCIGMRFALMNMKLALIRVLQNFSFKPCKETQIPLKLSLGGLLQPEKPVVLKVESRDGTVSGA

[14] = AUC in rat at 3 mg/kg, po; assay type: ADME, organism-based; set-up: dose 3 mg/kg; conditions: in vivo
P2X purinoceptor 1 = molecular target: T4, P2X purinoceptor 1 (Homo sapiens, UniProt P51575); assay: Antagonist activity at P2X1 receptor (unknown origin)
T4 sequence (P51575 whole entry): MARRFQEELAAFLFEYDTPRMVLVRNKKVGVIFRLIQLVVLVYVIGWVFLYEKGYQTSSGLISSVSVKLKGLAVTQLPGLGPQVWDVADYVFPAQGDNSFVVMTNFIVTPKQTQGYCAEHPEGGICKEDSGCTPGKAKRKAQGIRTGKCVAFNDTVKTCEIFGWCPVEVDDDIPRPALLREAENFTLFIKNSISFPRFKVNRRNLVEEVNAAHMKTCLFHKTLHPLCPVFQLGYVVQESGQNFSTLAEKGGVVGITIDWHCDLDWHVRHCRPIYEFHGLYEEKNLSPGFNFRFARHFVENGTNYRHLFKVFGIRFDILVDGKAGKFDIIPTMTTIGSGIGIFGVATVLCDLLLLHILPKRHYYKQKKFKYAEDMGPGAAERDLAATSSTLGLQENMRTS

P2X purinoceptor 7 = molecular target: T5, P2X purinoceptor 7 (Homo sapiens, UniProt Q99572); assay: Antagonist activity at P2X7 receptor (unknown origin)
T5 sequence (Q99572 whole entry): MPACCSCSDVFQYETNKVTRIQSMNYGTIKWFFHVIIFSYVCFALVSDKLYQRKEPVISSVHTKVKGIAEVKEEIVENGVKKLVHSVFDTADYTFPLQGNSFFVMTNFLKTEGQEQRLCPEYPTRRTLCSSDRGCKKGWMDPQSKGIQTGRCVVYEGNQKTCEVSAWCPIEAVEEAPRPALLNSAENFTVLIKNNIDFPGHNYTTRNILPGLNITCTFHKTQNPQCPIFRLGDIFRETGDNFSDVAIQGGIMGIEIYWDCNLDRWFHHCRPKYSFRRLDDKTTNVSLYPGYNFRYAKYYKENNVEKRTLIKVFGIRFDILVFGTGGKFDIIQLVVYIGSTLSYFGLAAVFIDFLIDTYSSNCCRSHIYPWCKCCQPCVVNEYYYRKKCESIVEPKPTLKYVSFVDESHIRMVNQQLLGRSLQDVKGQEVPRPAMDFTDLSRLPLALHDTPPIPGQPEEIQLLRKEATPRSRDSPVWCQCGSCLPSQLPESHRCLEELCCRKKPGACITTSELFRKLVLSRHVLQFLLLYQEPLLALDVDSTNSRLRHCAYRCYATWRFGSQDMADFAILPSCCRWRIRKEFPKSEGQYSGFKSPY

[15] = Protein binding in rat plasma assessed as unbound fraction at 3 mg/kg, iv; assay type: ADME, organism-based
P2X purinoceptor 2 = molecular target: T6, P2X purinoceptor 2 (Homo sapiens, UniProt Q9UBL9); assay: Antagonist activity at P2X2 receptor (unknown origin)
T6 sequence (Q9UBL9 whole entry): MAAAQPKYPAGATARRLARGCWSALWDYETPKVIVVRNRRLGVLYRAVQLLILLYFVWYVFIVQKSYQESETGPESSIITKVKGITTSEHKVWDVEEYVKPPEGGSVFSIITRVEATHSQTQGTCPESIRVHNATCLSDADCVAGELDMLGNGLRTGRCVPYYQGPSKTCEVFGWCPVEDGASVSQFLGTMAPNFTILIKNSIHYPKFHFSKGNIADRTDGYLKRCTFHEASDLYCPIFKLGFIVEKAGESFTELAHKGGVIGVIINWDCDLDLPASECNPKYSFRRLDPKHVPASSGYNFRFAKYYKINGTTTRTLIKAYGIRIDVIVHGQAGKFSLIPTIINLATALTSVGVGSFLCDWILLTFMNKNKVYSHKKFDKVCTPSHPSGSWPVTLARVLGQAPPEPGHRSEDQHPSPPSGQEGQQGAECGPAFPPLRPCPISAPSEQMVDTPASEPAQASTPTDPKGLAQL

[16] = Oral bioavailability in rat at 3 mg/kg; assay type: ADME, organism-based; conditions: in vivo
Cytochrome P450 2C9 = Cytochrome P450 2C9 (Homo sapiens, UniProt P11712); assay: Inhibition of CYP2C9 (unknown origin); assay type: ADME
Chain of Cytochrome P450 2C9 (P11712 whole entry): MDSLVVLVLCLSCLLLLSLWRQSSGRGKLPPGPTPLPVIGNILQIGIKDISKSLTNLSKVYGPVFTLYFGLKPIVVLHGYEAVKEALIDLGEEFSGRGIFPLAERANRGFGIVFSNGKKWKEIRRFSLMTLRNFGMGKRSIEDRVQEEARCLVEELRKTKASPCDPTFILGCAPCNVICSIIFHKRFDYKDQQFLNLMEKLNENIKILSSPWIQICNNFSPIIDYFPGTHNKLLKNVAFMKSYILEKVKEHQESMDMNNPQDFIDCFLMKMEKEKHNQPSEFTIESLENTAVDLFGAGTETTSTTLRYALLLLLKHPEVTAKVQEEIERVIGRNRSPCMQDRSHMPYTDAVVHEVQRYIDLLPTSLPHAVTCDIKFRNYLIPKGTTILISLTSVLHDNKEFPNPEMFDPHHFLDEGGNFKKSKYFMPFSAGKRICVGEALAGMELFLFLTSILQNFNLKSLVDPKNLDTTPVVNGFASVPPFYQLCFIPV

[17] = Solubility of the compound in JP2 fluid at pH 6.8; assay type: physicochemical
Rattus norvegicus [18] = assay: Analgesic activity in po dosed rat model of partial sciatic nerve ligation-induced neuropathic pain; assay type: functional

| IC50 (P2X purinoceptor 3) [µM] | clearance [4] [mL/min/kg] | half-life [8] [h] | IC50 (P2X purinoceptor 4) [µM] | IC50 (Cytochrome P450 1A2) [µM] | Cp(f) [9] [nM] | IC50 (Cytochrome P450 2C19) [µM] | bioavailability [10] [%] | solubility [11] [µg/mL] | IC50 (Cytochrome P450 2D6) [µM] | Cmax [12] [ng/mL] | fraction unbound [13] | IC50 (Cytochrome P450 3A4) [µM] | AUC [14] [ng·h/mL] | IC50 (P2X purinoceptor 1) [µM] | IC50 (P2X purinoceptor 7) [µM] | fraction unbound [15] | IC50 (P2X purinoceptor 2) [µM] | bioavailability [16] [%] | IC50 (Cytochrome P450 2C9) [µM] | Compound | further results |
| --- | --- | --- | --- | --- | --- | --- | --- | --- | --- | --- | --- | --- | --- | --- | --- | --- | --- | --- | --- | --- | --- |
| 0.0061 | 2.7 | 1.6 |  |  |  |  |  |  |  |  |  |  |  |  |  |  |  |  |  | Cc1ccc(Cn2c(Nc3ccc(OC(C)C)c(Cl)c3)nc(=O)n(CCC(=O)O)c2=O)cc1 | Activity (Rattus norvegicus [1]): 23%; Activity (Rattus norvegicus [2]): 11%; concentration at 3 h [3]: 1320 nM; concentration at 3 h [5]: 7840 nM; Activity (Rattus norvegicus [6]): 40%; concentration at 3 h [7]: 2650 nM |
| 0.0077 | 2.2 | 4.4 | > 30 | > 20 | 671 | > 20 | 87.6 | 0.8 (≈ 1.56 µM) | > 20 | 1610 | 0.012 | > 20 | 13700 | > 30 | > 30 | 0.012 | > 30 | 60 | > 20 | C[C@@H](Cn1c(=O)[nH]/c(=N\c2ccc(Oc3ccsn3)cc2)n(Cc2ccc(Cl)cc2)c1=O)C(=O)O | solubility [17]: 650 µg/mL (≈ 1260 µM); ED50 (Rattus norvegicus [18]): 0.4 mg/kg |
| 0.0038 | 5.9 | 4.3 | > 30 | > 20 | 738 | > 20 | 43.2 | 2.2 (≈ 4.18 µM) | > 20 | 597 | 0.013 | > 20 | 4020 | > 30 | > 30 | 0.013 | > 30 | 46.9 | > 20 | C[C@@H](Cn1c(=O)[nH]/c(=N\c2ccc(Oc3ccnc(F)c3)cc2)n(Cc2ccc(Cl)cc2)c1=O)C(=O)O | solubility [17]: 212 µg/mL (≈ 403 µM); ED50 (Rattus norvegicus [18]): 0.3 mg/kg |
